Data taken from ChEMBL document CHEMBL1201862, “PubChem BioAssay data set” (2004).
Active and inactive are the calls of the source.

How the values were obtained:
Vero = assay: cells; type: functional, cell-based; conditions: Chlorocebus sabaeus
[1] = test system: Streptococcus sp. 'group A'; assay: growth inhibition of control SK(-) GAS strain, dose response, counter-screen for streptokinase expression inhibitor project, luminescence, kanamycin, BacTiterGlo, confirmation (AID 1900); type: functional, organism-based
Streptokinase A = target: T1, Streptokinase A (Streptococcus pyogenes serotype M1, UniProt P10520); assay: S. pyogenes streptokinase expression inhibitors, potency, dose response, plasminogen activation absorbance, OD405 (AID 1914); type: functional, Streptococcus pyogenes M1 GAS;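 also: secreted streptokinase activity via plasminogen activation per viability signal from cell pellet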
T1 sequence (P10520 whole entry): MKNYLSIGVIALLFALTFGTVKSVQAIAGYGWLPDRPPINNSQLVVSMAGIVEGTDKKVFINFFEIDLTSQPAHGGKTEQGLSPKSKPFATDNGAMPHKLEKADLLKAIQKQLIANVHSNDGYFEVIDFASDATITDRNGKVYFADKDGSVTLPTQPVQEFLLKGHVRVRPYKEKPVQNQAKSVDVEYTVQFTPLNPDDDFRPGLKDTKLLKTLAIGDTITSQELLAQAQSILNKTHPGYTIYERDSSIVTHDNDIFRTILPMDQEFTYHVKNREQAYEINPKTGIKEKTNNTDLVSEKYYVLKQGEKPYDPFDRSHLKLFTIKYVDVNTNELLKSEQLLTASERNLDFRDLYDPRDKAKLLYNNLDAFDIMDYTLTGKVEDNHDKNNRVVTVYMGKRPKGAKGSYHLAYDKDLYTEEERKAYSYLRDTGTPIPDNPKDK

[2] = target: G-protein coupled receptor 55 (Homo sapiens, UniProt Q9Y2T6); assay: GPR55 antagonists blocking LPI-driven arrestin recruitment, primary screen, imaging, U2OS, beta-arrestin-GFP, LPI agonist (AID 2013); type: functional;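 also: antagonist potency measured as reduced agonist-driven arrestin aggregation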
Chain of G-protein coupled receptor 55 (Q9Y2T6 whole entry): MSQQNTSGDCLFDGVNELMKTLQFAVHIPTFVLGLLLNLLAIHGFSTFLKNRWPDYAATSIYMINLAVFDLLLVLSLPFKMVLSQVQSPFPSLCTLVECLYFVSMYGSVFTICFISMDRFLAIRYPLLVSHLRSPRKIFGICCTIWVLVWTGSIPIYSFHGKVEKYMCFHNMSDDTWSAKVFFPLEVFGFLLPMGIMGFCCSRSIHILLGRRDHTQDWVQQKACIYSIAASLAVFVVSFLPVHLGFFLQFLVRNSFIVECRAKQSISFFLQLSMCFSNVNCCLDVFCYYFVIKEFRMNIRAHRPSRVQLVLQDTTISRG

Streptococcus = assay: Group A Streptococcus viability loss, dose response, counter-screen for streptokinase expression inhibitor project, luminescence, BacTiterGlo (AID 1915); type: functional, organism-based;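 also: potency for reduction of bacterial viability or growth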
Bcl-2-related protein A1 = target: T2, Bcl-2-related protein A1 (Mus musculus, UniProt Q07440); type: functional;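 also: confirmatory dose–response counterscreen on Bfl-1, used to check hits from a UBC13 polyubiquitin inhibitor campaign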
T2 sequence (Q07440 whole entry): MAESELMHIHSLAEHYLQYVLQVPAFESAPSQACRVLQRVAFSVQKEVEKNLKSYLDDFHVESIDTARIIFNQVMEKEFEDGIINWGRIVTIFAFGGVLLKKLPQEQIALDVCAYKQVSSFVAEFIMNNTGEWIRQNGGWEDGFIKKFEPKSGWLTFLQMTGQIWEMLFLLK

[3] = target: T3, Ubiquitin-conjugating enzyme E2 N (Homo sapiens, UniProt P61088); type: functional
T3 sequence (P61088 whole entry): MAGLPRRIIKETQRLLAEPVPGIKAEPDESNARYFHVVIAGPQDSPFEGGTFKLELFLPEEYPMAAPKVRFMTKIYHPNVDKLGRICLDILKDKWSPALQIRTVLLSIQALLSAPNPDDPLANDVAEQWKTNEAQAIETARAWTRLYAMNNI

[4] = target: T3, Ubiquitin-conjugating enzyme E2 N; type: functional; remark: listed apart in the source
Hexokinase HKDC1 = target: T4, Hexokinase HKDC1 (Homo sapiens, UniProt Q2TB90); assay: HKDC1 hexokinase activators, dose response, biochemical, W721R variant (AID 504730); type: functional
T4 sequence (Q2TB90 whole entry): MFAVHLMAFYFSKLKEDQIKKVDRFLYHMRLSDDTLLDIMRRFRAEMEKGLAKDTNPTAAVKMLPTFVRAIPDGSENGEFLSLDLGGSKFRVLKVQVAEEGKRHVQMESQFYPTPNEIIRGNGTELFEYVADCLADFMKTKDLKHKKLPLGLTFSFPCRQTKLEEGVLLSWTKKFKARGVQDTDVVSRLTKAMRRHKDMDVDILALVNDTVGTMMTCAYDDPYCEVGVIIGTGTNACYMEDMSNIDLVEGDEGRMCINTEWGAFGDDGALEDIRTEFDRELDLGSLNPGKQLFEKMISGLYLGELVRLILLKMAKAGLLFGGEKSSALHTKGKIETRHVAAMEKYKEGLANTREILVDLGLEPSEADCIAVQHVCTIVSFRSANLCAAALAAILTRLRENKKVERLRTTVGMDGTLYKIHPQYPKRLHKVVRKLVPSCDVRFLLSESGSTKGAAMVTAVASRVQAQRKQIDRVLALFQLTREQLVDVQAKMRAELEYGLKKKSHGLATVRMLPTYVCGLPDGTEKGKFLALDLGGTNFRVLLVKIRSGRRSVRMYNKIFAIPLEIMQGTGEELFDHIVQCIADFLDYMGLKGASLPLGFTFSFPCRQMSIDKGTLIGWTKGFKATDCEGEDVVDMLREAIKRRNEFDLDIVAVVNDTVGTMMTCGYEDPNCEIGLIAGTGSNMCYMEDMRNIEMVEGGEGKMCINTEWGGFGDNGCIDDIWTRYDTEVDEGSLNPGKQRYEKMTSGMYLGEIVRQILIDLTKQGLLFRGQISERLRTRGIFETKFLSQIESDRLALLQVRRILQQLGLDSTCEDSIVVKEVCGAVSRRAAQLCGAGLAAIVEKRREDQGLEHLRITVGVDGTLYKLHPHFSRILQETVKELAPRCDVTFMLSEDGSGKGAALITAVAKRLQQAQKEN

Nonstructural protein 1 = Nonstructural protein 1 (Influenza A virus, UniProt Q194T2); type: functional, Influenza A virus (A/California/07/2009(H1N1))
Chain of Nonstructural protein 1 (Q194T2 whole entry): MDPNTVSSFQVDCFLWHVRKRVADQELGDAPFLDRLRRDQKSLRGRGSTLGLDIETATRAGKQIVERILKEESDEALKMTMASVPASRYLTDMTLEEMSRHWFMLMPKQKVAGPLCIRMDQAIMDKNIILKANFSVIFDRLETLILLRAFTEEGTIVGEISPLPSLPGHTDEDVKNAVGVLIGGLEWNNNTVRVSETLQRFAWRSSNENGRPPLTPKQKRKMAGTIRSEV

Hexokinase-1 = target: T5, Hexokinase-1 (Homo sapiens, UniProt P19367); assay: hexokinase 1 activators, dose response, selectivity assay for HKDC1 activator project, biochemical (AID 504762); type: functional
T5 sequence (P19367 whole entry): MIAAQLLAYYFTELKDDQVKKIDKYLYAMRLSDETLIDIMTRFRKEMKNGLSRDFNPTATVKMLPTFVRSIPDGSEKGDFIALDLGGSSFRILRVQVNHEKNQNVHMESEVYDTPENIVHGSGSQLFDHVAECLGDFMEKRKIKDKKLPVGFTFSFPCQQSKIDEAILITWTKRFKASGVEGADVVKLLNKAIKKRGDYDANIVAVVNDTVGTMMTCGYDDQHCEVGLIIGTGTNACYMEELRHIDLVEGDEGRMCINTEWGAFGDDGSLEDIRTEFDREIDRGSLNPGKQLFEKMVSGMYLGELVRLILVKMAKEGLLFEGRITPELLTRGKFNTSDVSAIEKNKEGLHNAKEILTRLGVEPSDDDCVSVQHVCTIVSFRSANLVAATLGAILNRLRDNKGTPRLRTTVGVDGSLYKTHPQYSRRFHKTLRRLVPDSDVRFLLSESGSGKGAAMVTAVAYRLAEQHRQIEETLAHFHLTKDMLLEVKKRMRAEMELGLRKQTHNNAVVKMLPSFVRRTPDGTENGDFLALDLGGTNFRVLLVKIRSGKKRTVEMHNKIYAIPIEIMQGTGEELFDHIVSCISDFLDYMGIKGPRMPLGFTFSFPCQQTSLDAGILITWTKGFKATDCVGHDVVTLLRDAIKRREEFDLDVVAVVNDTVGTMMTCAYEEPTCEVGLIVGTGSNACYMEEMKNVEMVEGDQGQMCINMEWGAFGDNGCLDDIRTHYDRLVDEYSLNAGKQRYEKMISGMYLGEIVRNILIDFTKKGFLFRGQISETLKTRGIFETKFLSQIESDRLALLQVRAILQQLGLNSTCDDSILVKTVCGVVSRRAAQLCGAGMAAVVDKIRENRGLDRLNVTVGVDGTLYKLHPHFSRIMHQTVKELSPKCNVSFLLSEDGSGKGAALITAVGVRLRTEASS

[5] = target: T6, Alkaline phosphatase, tissue-nonspecific isozyme (Homo sapiens, UniProt P05186); assay: human TNAP enzyme inhibitors, SAR follow-up, biochemical, luminescent, dose response (AID 1056)
T6 sequence (P05186 whole entry): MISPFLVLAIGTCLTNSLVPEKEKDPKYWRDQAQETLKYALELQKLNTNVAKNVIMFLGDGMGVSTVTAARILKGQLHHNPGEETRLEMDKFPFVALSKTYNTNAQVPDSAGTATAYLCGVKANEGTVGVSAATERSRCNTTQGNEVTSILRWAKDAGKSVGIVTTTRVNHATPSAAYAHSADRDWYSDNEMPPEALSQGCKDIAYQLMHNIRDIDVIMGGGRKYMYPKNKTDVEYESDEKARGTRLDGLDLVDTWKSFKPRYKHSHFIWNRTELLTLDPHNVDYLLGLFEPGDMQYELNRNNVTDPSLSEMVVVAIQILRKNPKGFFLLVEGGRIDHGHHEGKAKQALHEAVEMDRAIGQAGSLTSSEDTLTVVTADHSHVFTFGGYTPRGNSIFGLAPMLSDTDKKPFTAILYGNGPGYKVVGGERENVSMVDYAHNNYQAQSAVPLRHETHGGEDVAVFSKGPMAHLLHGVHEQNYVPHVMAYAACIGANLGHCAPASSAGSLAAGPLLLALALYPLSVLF

[6] = growth suppression of PTEN-null colon cells, dose response, cell-based, HCT116 PTEN knockout (AID 1047); type: functional;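 also: HCT116 colon tumor cells with PTEN knocked out; cells exposed to compound for 60 hours before readout; potency for loss of cell viability measured by luminescence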
[7] = growth suppression of beta-catenin-knockout colon cells, dose response, cell-based, HCT116, human colon tumor (AID 1045); type: functional;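 also: HCT116 colon tumor cells with beta catenin knocked out; cells exposed to compound for 60 hours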
Hexokinase = target: T7, Hexokinase (Trypanosoma brucei, UniProt Q38C41); assay: Confirmation assay for inhibitors of Trypanosoma brucei hexokinase 1-Analogue-first series. [Related pubchem assays (depositor defined):AID1430, AID1632, AID2516, AID2560, AID2579, AID2600, AID449725, AID492951]; type: functional
T7 sequence (Q38C41 whole entry): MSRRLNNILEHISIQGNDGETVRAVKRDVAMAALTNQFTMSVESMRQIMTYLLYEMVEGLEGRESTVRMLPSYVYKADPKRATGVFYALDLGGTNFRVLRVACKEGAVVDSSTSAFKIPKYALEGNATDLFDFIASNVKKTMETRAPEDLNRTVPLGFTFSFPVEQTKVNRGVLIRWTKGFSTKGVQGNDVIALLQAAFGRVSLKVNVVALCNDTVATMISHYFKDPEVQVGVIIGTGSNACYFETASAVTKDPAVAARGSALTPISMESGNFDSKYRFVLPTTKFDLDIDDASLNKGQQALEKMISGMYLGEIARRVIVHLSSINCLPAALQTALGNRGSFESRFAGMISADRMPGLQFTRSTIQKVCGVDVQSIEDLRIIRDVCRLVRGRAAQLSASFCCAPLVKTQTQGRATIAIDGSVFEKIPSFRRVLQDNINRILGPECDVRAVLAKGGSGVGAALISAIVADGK

Compound: COc1cccc(-c2ccc(NC(=O)C3CCCN(Cc4cnn(C)c4)C3)cc2)c1 (stereo not drawn)
- IC50 (Vero): 21.9 µM (active)

Compound: COc1ccc(C(=O)NC(=S)N(Cc2ccccc2)Cc2ccccc2)cc1
- EC50 [1]: 0.883 µM (active)
- EC50 (Streptokinase A): > 150 µM (not active)
- IC50 [2]: 4.36 µM (active)
- EC50 (Streptococcus): 14.5 µM (active)

Compound: COC(=O)c1ccc(Cn2c(O)c(/N=N/C(=N)S)c3ccccc32)o1
- IC50 (Bcl-2-related protein A1): > 20 µM (inactive)
- IC50 [3]: 14.1 µM (active)
- IC50 [4]: > 20 µM (inactive)

Compound: Nn1cnnc1N/N=C/c1cc(Br)cc(Br)c1O
- EC50 (Hexokinase HKDC1): > 80 µM (inactive)
- IC50 (Nonstructural protein 1): 10.7 µM (active)
- EC50 (Hexokinase-1): 42.3 µM (inactive)

Compound: COc1cc(C(=O)CSc2nc(C)cc(C)n2)ccc1O
- IC50 [5]: > 100 µM (inactive)

Compound: CCOc1ccccc1NC(=O)C(OC(=O)c1ccc(O)cc1)c1ccccc1 (stereo not drawn)
- EC50 [6]: 729 µM (active)
- EC50 [7]: 680 µM (active)
- IC50 (Bcl-2-related protein A1): > 20 µM (inactive)
- IC50 [3]: 15.2 µM (active)
- IC50 [4]: > 20 µM (inactive)

Compound: O=C(Nc1cc(Cl)ccc1C(=O)O)c1ccc(Cl)cc1
- IC50 (Hexokinase): > 25 µM (inactive)
